How the values were obtained:
[1] = molecular target: T1, human sodium channels Nav 1.8 (Homo sapiens, UniProt Q9Y5Y9); assay: Automated whole-cell voltage-clamp (ScreenPatch 384P) sodium current block, Nav 1.8; format: cell-based; conditions: CHO cells stably expressing human Nav 1.8; inactivation step -40 mV for 8 seconds, test step 10 mV (TP1A); exposure at least five minutes; room temperature; mean if two or more assays; read-out: Nav1.8 IC50
T1 construct: expressed in transfected cells
Experimental: (§1) Biological assays were performed on Chinese hamster ovary (CHO) cells that express human sodium channels Nav 1.8 or Nav 1.7 in a stable manner.
(§2) The experimental protocol voltage-clamp using the whole cell configuration was established on the automated ScreenPatch® 384P platform (SP384PE, Nanion Technologies, Livingston, NJ) and the results were recorded with a Nanion 384-well Patch Clamp chip (NPC) (Nanion Technologies, Livingston, NJ).
(§3) Formula I compounds were diluted in eight concentrations in the extracellular solution composed of saline saline solution, buffered with HEPES (mM): NaCl, 137; KCl, 4; CaCl2, 3,8; MgCl2, 1; HEPES, 10; Glucose, 10; pH 7.4. The […], 50; CsF, 90; MgCl2, 5; EGTA, 5; HEPES, 10; pH 7.2. The duration of exposure of each compound with cells expressing Nav 1.7 or Nav 1.8 was at least five minutes and the assays were performed at room temperature.
(§4) The measurements of the sodium currents of Nav 1.8 and Nav 1.7 were obtained using the voltage protocol described below.
(§5) A holding voltage of -100 mV was established followed by an inactivation voltage step at -40 mV for 8 seconds, followed by a step of -100 mV for 20 ms, followed by a 20 ms step for 10 mV for Nav 1.8 or 0 mV for Nav 1.7 (TP1A) before returning to the holding voltage of -100 mV.
(§6) The protocol was repeated at a frequency of 0.05 Hz and the amplitude of the current was quantified throughout the recording of the TP1A phase. The variation in the amplitude of the peak current was evaluated according to the formula described below, after exposing the cells expressing the channels to each concentration of the different compounds: % Block = (1−(ITP1A,molecule/ITP1A,basal)×100%, [formula] wherein ITP1A,basal and ITP1A,molecule represent the peaks of sodium current input into TP1A before exposure to the compound and in the presence of the compound, respectively.
(§7) Data were obtained by nonlinear regression (nonlinear least squares) with XLfit for Excel (Microsoft, Redmond, WA).
(§8) The compounds were tested in at least one assay to obtain the value of CI50. For compounds that were tested in two or more assays, the results are described as the mean of the CI50 values.

[2] = molecular target: T2, human sodium channels Nav 1.7 (Homo sapiens, UniProt Q15858); assay: Automated whole-cell voltage-clamp (ScreenPatch 384P) sodium current block, Nav 1.7; format: cell-based; conditions: CHO cells stably expressing human Nav 1.7; inactivation step -40 mV for 8 seconds, test step 0 mV (TP1A); exposure at least five minutes; room temperature; mean if two or more assays; read-out: Nav1.7 IC50
T2 construct: expressed in transfected cells
Experimental: as §1, §2, §3, §4, §5, §6, §7, §8

T2 sequence (Q15858 whole entry): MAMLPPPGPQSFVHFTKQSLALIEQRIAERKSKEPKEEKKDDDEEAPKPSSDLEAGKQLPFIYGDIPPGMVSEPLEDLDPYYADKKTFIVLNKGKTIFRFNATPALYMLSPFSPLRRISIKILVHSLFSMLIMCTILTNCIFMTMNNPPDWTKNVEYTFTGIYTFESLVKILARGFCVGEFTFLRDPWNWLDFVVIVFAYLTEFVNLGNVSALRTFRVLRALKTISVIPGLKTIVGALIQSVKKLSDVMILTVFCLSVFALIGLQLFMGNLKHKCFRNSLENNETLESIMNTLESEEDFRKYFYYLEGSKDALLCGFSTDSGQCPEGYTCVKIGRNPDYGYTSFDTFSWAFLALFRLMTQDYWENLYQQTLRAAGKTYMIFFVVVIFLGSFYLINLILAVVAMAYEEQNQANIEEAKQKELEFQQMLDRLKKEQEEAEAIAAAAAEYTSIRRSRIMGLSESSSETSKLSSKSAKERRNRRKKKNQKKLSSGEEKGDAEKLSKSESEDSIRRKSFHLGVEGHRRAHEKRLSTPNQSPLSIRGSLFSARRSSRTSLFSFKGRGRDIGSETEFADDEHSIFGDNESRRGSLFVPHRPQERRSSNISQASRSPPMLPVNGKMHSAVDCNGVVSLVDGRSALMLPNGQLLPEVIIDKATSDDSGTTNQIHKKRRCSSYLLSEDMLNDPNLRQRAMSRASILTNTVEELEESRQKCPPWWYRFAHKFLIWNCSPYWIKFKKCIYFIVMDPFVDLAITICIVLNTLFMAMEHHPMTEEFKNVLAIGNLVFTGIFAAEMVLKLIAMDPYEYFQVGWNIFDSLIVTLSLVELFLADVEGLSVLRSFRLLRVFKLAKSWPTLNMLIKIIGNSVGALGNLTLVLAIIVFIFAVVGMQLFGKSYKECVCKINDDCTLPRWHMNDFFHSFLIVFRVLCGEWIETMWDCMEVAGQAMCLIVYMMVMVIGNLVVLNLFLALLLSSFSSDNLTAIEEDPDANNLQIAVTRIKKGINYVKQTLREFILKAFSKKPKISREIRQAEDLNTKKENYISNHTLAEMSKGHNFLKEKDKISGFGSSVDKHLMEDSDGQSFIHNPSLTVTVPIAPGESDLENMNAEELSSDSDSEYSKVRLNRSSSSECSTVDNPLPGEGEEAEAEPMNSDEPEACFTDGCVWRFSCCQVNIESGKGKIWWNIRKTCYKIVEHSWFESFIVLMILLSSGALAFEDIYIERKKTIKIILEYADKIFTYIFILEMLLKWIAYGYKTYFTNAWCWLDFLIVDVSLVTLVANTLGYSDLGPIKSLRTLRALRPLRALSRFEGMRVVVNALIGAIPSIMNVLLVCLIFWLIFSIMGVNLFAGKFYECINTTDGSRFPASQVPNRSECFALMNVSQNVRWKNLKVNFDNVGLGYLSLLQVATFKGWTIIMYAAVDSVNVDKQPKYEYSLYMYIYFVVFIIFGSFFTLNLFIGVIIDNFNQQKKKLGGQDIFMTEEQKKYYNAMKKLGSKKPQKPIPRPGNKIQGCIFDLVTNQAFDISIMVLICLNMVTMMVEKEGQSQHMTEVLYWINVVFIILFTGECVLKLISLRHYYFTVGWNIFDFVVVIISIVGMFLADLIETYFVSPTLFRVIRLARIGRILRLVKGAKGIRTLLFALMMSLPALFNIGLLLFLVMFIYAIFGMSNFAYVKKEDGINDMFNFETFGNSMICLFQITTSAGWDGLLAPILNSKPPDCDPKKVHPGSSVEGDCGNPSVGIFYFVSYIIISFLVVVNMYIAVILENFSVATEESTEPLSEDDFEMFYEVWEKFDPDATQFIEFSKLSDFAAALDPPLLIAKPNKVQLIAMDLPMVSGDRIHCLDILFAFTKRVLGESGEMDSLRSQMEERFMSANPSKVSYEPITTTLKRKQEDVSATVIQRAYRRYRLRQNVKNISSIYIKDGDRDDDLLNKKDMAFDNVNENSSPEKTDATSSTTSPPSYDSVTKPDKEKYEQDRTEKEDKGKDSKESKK
T1 sequence (Q9Y5Y9 whole entry): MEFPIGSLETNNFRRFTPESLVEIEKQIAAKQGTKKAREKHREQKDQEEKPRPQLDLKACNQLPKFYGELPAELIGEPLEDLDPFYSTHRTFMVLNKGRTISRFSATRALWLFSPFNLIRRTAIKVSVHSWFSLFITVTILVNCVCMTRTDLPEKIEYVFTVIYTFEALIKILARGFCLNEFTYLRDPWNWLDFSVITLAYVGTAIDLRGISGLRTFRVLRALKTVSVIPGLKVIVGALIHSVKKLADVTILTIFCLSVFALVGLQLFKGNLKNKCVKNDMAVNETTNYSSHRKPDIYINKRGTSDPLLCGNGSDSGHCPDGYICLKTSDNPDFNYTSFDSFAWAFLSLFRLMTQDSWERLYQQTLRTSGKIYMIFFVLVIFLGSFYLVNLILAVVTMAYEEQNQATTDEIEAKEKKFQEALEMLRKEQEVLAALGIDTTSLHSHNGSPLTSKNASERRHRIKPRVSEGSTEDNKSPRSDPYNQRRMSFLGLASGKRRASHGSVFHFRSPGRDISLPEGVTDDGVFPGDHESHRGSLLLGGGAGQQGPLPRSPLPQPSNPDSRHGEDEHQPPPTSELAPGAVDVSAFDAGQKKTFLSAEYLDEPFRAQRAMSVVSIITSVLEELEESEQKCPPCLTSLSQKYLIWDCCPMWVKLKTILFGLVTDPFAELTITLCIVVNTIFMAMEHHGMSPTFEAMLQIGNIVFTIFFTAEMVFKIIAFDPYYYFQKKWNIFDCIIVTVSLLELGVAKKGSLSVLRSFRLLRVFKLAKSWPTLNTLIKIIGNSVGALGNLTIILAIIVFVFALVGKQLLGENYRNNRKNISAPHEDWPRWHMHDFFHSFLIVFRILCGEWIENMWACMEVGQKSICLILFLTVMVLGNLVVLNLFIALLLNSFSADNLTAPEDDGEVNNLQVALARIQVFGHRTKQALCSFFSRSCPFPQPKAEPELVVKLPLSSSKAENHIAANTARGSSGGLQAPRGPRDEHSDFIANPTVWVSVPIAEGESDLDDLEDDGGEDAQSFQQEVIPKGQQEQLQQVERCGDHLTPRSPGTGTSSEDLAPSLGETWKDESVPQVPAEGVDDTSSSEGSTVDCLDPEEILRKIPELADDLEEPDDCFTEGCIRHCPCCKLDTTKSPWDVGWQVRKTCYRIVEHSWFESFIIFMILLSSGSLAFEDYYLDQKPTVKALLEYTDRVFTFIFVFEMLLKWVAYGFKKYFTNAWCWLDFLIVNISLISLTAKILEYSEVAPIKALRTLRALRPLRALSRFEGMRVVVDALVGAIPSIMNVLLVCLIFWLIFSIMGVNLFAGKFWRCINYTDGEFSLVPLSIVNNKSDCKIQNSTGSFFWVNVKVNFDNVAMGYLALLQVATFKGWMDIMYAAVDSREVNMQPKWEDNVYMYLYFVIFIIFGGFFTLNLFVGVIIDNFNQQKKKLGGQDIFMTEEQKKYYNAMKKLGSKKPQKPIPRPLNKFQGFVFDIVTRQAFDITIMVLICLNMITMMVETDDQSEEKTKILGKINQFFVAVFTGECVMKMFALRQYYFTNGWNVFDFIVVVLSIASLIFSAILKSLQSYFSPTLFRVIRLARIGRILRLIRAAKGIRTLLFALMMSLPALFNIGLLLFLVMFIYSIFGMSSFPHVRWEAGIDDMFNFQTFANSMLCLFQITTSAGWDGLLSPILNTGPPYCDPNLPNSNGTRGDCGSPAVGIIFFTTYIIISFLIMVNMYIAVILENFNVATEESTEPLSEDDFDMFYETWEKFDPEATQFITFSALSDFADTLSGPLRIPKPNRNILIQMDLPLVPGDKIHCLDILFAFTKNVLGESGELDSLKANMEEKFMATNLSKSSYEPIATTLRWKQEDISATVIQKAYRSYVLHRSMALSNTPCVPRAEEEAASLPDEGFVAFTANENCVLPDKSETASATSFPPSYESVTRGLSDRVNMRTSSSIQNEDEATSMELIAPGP

IC50 [1]	IC50 [2]	SMILES
< 0.5 µM	> 1 µM	CCOc1ccc(-c2cncc(C(=O)NOCc3cncc(OC)c3)n2)cn1 [Compound 36, 6-(6-ethoxypyridine-3-yl)-N-((5-methoxypyridine-3-yl)methoxy)pyrazine-2-carboxamide]
0.5 to 1 µM	> 1 µM	COc1ccc(F)c(CONC(=O)c2cncc(-c3ccc(OC(C)C)nc3)n2)c1 [Compound 31, N-((2-fluoro-5-methoxybenzyl)oxy)-6-(6-isopropoxypyridine-3-yl)pyrazine-2-carboxamide]
> 1 µM	> 1 µM	CCOc1ccc(-c2cncc(C(=O)NOCc3ocnc3C)n2)cn1 [Compound 65, 6-(6-ethoxypyridine-3-yl)-N-((4-methyloxazole-5-yl)methoxy)pyrazine-2-carboxamide]
> 1 µM	> 1 µM	[2H]C([2H])([2H])Oc1ccc(F)c(C([2H])([2H])ONC(=O)c2cncc(-c3ccc(OC([2H])([2H])C([2H])([2H])[2H])nc3)n2)c1 [Compound 54, 6-(6-(ethoxy-d5)pyridine-3-yl)-N-((2-fluoro-5-(methoxy-d3)phenyl)methoxy-d2)pyrazine-2-carboxamide]
> 1 µM	> 1 µM	COc1ccc(F)c(CONC(=O)c2cncc(-c3ccc(OCC4CNC4)cc3)n2)c1 [Compound 23, 6-(4-(azetidine-3-ylmethoxy)phenyl)-N-((2-fluoro-5-methoxybenzyl)oxy)pyrazine-2-carboxamide]
> 1 µM	> 1 µM	COc1ccc(F)c(CONC(=O)c2cncc(-c3ccc(OCCC4CNC4)cc3)n2)c1 [Compound 24, 6-(4-(2-(azetidine-3-yl)ethoxy)phenyl)-N-((2-fluoro-5-methoxybenzyl)oxy)pyrazine-2-carboxamide]
< 0.5 µM	0.5 to 1 µM	[2H]C([2H])([2H])Oc1ccc(F)c(CONC(=O)c2cncc(-c3ccc(OCC)nc3)n2)c1 [Compound 55, 6-(6-ethoxypyridine-3-yl)-N-((2-fluoro-5-(methoxy-d3)benzyl)oxy)pyrazine-2-carboxamide]
> 1 µM	> 1 µM	CCOc1ccc(-c2cncc(C(=O)NOCc3cc(C(C)N)ccc3F)n2)cn1 (centres unmarked) [Compound 45, N-((5-(1-aminoethyl)-2-fluorobenzyl)oxy)-6-(6-ethoxypyridine-3-yl)pyrazine-2-carboxamide]
< 0.5 µM	> 1 µM	CCOc1ccc(-c2cncc(C(=O)NOCc3cc(N(C)C)ccc3F)n2)cn1 [Compound 40, N-((5-(dimethylamino)-2-fluorobenzyl)oxy)-6-(6-ethoxypyridine-3-yl)pyrazine-2-carboxamide]
< 0.5 µM	> 1 µM	CCOc1ccc(-c2cncc(C(=O)NOCc3cc(N(C)C)cnc3F)n2)cn1 [Compound 42, N-((5-(dimethylamino)-2-fluoropyridine-3-yl)methoxy)-6-(6-ethoxypyridine-3-yl)pyrazine-2-carboxamide]
> 1 µM	> 1 µM	CCOc1ccc(-c2cncc(C(=O)NOCc3[nH]cnc3C)n2)cn1 [Compound 59, 6-(6-ethoxypyridine-3-yl)-N-((4-methyl-1H-imidazole-5-yl)methoxy)pyrazine-2-carboxamide]

Continued, molecule first:

SMILES	IC50 [1]	IC50 [2]
COc1cccc(CONC(=O)c2cncc(-c3ccc(OC(F)(F)F)nc3)n2)c1 [Compound 72]	< 0.5 µM	< 0.5 µM
CCOc1ccc(-c2cncc(C(=O)NOCc3[nH]ccc3C#N)n2)cn1 [Compound 68]	> 1 µM	> 1 µM
COc1ccc(F)c(CONC(=O)c2nc(-c3ccc(OC(F)F)nc3)cnc2F)c1 [Compound 123]	> 1 µM	> 1 µM
COc1ccc(F)c(CONC(=O)c2cncc(-c3ccc(OC(C)C)cc3)n2)c1 [Compound 3, N-((2-fluoro-5-methoxybenzyl)oxy)-6-(4-isopropoxyphenyl)pyrazine-2-carboxamide]	< 0.5 µM	< 0.5 µM
COc1ccc(F)c(CONC(=O)c2cncc(-c3ccc([S+](C)[O-])nc3)n2)c1 (centres unmarked) [Compound 84]	< 0.5 µM	> 1 µM
COc1cnc(F)c(CONC(=O)c2cccc(-c3ccc(OC(F)F)nc3)n2)c1 [Compound 114]	0.5 to 1 µM	> 1 µM
CCOc1ccc(-c2cncc(C(=O)NOCc3cc(OC)ccc3F)n2)cc1 [Compound 9, 6-(4-ethoxyphenyl)-N-((2-fluoro-5-methoxybenzyl)oxy)pyrazine-2-carboxamide]	< 0.5 µM	> 1 µM
COc1ccc(F)c(CONC(=O)c2cnc(N)c(-c3ccc(OC(F)F)nc3)n2)c1 [Compound 122]	> 1 µM	> 1 µM
CCOc1ccc(-c2nc(O)cc(C(=O)NOCc3cc(OC)ccc3F)n2)cc1 [Compound 112]	< 0.5 µM	> 1 µM
CCOc1cc(C)c(-c2cncc(C(=O)NOCc3cc(OC)ccc3F)n2)cn1 [Compound 93]	> 1 µM	> 1 µM
CCOc1ccc(-c2cncc(C(=O)NOCc3ccccc3F)n2)cc1 [Compound 4, 6-(4-ethoxyphenyl)-N-((2-fluorobenzyl)oxy)pyrazine-2-carboxamide]	< 0.5 µM	0.5 to 1 µM
CCOc1ccc(-c2cncc(C(=O)NOCc3cc(OC)ccc3F)n2)c(OC)n1 [Compound 94]	> 1 µM	> 1 µM
CCOc1ccc(-c2cncc(C(=O)NOCc3cc(OC)cc(OC)c3)n2)cc1 [Compound 20, N-((3,5-dimethoxybenzyl)oxy)-6-(4-ethoxyphenyl)pyrazine-2-carboxamide]	> 1 µM	> 1 µM
CCOc1ccc(-c2cncc(C(=O)NOCc3ccccc3O)n2)cc1 [Compound 6, 6-(4-ethoxyphenyl)-N-((2-hydroxybenzyl)oxy)pyrazine-2-carboxamide]	> 1 µM	> 1 µM
CCOc1ccc(-c2cncc(C(=O)NOCc3cc(OC)cnc3C)n2)cc1 [Compound 18, 6-(4-ethoxyphenyl)-N-((5-methoxy-2-methylpyridine-3-yl)methoxy)pyrazine-2-carboxamide]	< 0.5 µM	0.5 to 1 µM
CCOc1ccc(-c2cccc(C(=O)NOCc3cc(OC)cnc3F)n2)cn1 [Compound 107]	> 1 µM	> 1 µM
CCOc1ccc(-c2cncc(C(=O)NOCc3ccnn3C)n2)cn1 [Compound 58]	> 1 µM	> 1 µM
CCOc1ccc(-c2cncc(C(=O)NOCc3cc(OC)ccc3C)n2)cc1 [Compound 19, 6-(4-ethoxyphenyl)-N-((5-methoxy-2-methylbenzyl)oxy)pyrazine-2-carboxamide]	> 1 µM	> 1 µM
COc1ccc(F)c(CONC(=O)c2ccnc(-c3ccc(OC(F)F)nc3)n2)c1 [Compound 118]	< 0.5 µM	> 1 µM
COc1ccc(F)c(CONC(=O)c2cncc(-c3ccc(OC4CNC4)cc3)n2)c1 [Compound 22, 6-(4-(azetidin-3-yloxy)phenyl)-N-((2-fluoro-5-methoxybenzyl)oxy)pyrazine-2-carboxamide]	> 1 µM	> 1 µM
CCOc1ccc(-c2cncc(C(=O)NOCc3cc(OC)ccc3F)n2)c(C)n1 [Compound 92]	< 0.5 µM	> 1 µM
CCOc1ccc(-c2cnc(N)c(C(=O)NOCc3cc(OC)ccc3F)n2)cn1 [Compound 103]	0.5 to 1 µM	> 1 µM
CCOc1ccc(-c2cncc(C(=O)NOCc3cc(OC)ccc3F)c2)cn1 [Compound 108]	> 1 µM	> 1 µM

Source: EP4660184A1 (Eurofarma Laboratórios S.A., priority 2023, dated 2024)
